From PubChem BioAssay (NCI)
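In this assay, cells in 96-well plates receive the compound at five concentrations for 48 hours. Endpoints are linearly interpolated between the surrounding concentrations. At the GI50, growth is halved. TGI: concentration producing complete growth inhibition.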

Key:
Test in all cases: NCI anticancer screen, dose series, 48 h
[1] = system: SNB-19 CNS
[2] = system: OVCAR-4 ovarian
[3] = system: OVCAR-3 ovarian
[4] = system: SK-MEL-2 melanoma
[5] = system: SW-620 colon
[6] = system: RPMI-8226 leukemia
[7] = system: HOP-92 NSCLC
[8] = system: HCT-116 colon
[9] = system: A498 renal
[10] = system: SK-MEL-28 melanoma
[11] = system: SK-MEL-5 melanoma
[12] = system: HCC-2998 colon
[13] = system: OVCAR-8 ovarian
[14] = system: UACC-257 melanoma
[15] = system: T-47D breast
[16] = system: NCI-H522 lung
[17] = system: MOLT-4 leukemia
[18] = system: HT29 colon
[19] = system: LOX IMVI melanoma
[20] = system: CCRF-CEM leukemia
[21] = system: K-562 leukemia
[22] = system: UACC-62 melanoma
[23] = system: SF-268 CNS
[24] = system: A549 NSCLC
[25] = system: KM12 colon
[26] = system: UO-31 renal
[27] = system: HS 578T breast
[28] = system: ACHN renal
[29] = system: MDA-MB-231 breast
[30] = system: OVCAR-5 ovarian
[31] = system: HL-60(TB) leukemia
[32] = system: IGROV1 ovarian
[33] = system: HCT-15 colon
[34] = system: 786-0 renal
[35] = system: SNB-75 CNS
[36] = system: TK-10 renal
[37] = system: MDA-MB-468 breast
[38] = system: MDA-MB-435
[39] = system: RXF 393 renal
[40] = system: M14 melanoma
[41] = system: EKVX NSCLC
[42] = system: SN12C renal
[43] = system: CAKI-1 renal
[44] = system: NCI-H23 lung
[45] = system: COLO 205 colon
[46] = system: MCF7 breast
[47] = system: BT-549 breast
[48] = system: HOP-62 NSCLC
[49] = system: NCI-H226 lung
[50] = system: SK-OV-3 ovarian
[51] = system: SF-539 CNS
[52] = system: NCI-H460 lung
[53] = system: U251 CNS
[54] = system: SR leukemia
[55] = system: SF-295 CNS
[56] = system: DU-145 prostate
[57] = system: PC-3 prostate
[58] = system: MALME-3M melanoma

Compound: O=C(/C=C/c1ccco1)c1nc2ccccc2n1Cc1ccc(Br)cc1
- GI50 [1]: 14.4 µM
- TGI [1]: 34.7 µM
- GI50 [2]: 23.6 µM
- TGI [2]: > 100 µM
- GI50 [3]: 8.02 µM
- TGI [3]: 30.4 µM
- GI50 [4]: 16.3 µM
- TGI [4]: 35.7 µM
- GI50 [5]: 12.1 µM
- TGI [5]: 48.4 µM
- GI50 [6]: 15.8 µM
- TGI [6]: > 100 µM
- GI50 [7]: 5.77 µM
- TGI [7]: 33.5 µM
- GI50 [8]: 15 µM
- TGI [8]: 61.7 µM
- GI50 [9]: 28.7 µM
- TGI [9]: 65.3 µM
- GI50 [10]: 15.6 µM
- TGI [10]: 32.1 µM
- GI50 [11]: 14.1 µM
- TGI [11]: 28 µM
- GI50 [12]: 14.9 µM
- TGI [12]: 28.8 µM
- GI50 [13]: 16.6 µM
- TGI [13]: 39.7 µM
- GI50 [14]: 17.4 µM
- TGI [14]: 68.4 µM
- GI50 [15]: 6.12 µM
- TGI [15]: > 100 µM
- GI50 [16]: 15.6 µM
- TGI [16]: 38.9 µM
- GI50 [17]: 6.57 µM
- TGI [17]: > 100 µM
- GI50 [18]: 31.1 µM
- TGI [18]: > 100 µM
- GI50 [19]: 12.2 µM
- TGI [19]: 27.3 µM
- GI50 [20]: 12.3 µM
- TGI [20]: > 100 µM
- GI50 [21]: 10.6 µM
- TGI [21]: > 100 µM
- GI50 [22]: 10.8 µM
- TGI [22]: 26.2 µM
- GI50 [23]: 27.2 µM
- TGI [23]: > 100 µM
- GI50 [24]: 21.2 µM
- TGI [24]: > 100 µM
- GI50 [25]: 12.5 µM
- TGI [25]: 34.3 µM
- GI50 [26]: 11 µM
- TGI [26]: 26.4 µM
- GI50 [27]: 30.4 µM
- TGI [27]: > 100 µM
- GI50 [28]: 22 µM
- TGI [28]: 69.1 µM
- GI50 [29]: 14 µM
- TGI [29]: 34.6 µM
- GI50 [30]: 17.9 µM
- TGI [30]: 38.1 µM
- GI50 [31]: 12.7 µM
- TGI [31]: > 100 µM
- GI50 [32]: 15.6 µM
- TGI [32]: 63.7 µM
- GI50 [33]: 6.96 µM
- TGI [33]: 23.2 µM
- GI50 [34]: 21.3 µM
- TGI [34]: 76.4 µM
- GI50 [35]: 13 µM
- TGI [35]: > 100 µM
- GI50 [36]: 32.8 µM
- TGI [36]: > 100 µM
- GI50 [37]: 7.31 µM
- TGI [37]: 26.9 µM
- GI50 [38]: 15 µM
- TGI [38]: 36.9 µM
- GI50 [39]: 9.57 µM
- TGI [39]: 22.1 µM
- GI50 [40]: 18.9 µM
- TGI [40]: 38.3 µM
- GI50 [41]: 26.2 µM
- TGI [41]: > 100 µM
- GI50 [42]: 19.9 µM
- TGI [42]: 52.5 µM
- GI50 [43]: 14 µM
- TGI [43]: > 100 µM
- GI50 [44]: 13.7 µM
- TGI [44]: 42.3 µM
- GI50 [45]: 17.6 µM
- TGI [45]: 34.1 µM
- GI50 [46]: 2.9 µM
- TGI [46]: > 100 µM
- GI50 [47]: 13.8 µM
- TGI [47]: 35.7 µM
- GI50 [48]: 19.7 µM
- TGI [48]: 49.2 µM
- GI50 [49]: 19.3 µM
- TGI [49]: 53 µM
- GI50 [50]: 34.5 µM
- TGI [50]: > 100 µM
- GI50 [51]: 17.8 µM
- TGI [51]: 35 µM
- GI50 [52]: 15.2 µM
- TGI [52]: 38.1 µM
- GI50 [53]: 12 µM
- TGI [53]: 26.8 µM
- GI50 [54]: 9.23 µM
- TGI [54]: > 100 µM
- GI50 [55]: 16.7 µM
- TGI [55]: 42.1 µM
- GI50 [56]: 21 µM
- TGI [56]: > 100 µM
- GI50 [57]: 23.9 µM
- TGI [57]: > 100 µM
- GI50 [58]: 16 µM
- TGI [58]: 33.9 µM
